Test [1] addresses T1, beta-catenin/TCF4 engagement (Homo sapiens, UniProt P35222).
T1 construct: expressed in transfected cells; host or cells: HEK293
T1 sequence (P35222 1-781): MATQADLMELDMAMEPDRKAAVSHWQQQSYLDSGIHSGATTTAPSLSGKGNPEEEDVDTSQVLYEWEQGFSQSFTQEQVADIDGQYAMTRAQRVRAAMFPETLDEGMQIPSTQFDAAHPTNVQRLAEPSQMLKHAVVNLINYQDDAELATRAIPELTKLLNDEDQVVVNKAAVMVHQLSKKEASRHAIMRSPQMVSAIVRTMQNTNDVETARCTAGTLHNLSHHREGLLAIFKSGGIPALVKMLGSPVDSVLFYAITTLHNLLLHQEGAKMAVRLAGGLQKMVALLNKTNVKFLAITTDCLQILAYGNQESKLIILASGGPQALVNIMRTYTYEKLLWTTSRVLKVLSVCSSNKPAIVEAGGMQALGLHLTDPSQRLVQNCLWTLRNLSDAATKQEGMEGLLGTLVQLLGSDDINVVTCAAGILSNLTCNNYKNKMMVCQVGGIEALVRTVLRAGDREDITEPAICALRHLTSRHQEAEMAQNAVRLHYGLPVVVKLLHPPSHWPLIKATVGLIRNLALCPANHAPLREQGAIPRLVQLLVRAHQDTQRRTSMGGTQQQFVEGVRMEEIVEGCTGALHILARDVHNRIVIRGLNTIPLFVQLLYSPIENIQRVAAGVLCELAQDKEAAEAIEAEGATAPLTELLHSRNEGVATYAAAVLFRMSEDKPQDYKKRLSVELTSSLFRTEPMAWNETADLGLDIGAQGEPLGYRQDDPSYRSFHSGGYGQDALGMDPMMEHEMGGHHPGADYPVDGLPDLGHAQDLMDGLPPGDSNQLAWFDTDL
Put plainly: Nano-BRET target engagement assay (B-cat-Halo & TCF4-Luc in HEK293 cells). The test is classed as cell-based. The note with it: absolute IC50; read-out: NanoBRET Abs IC50. (In BRET a luciferase serves as donor, and the signal depends on an acceptor being close.)

The target of test [2] is T2, full-length beta-Catenin (Uniprot ID P35222) (Homo sapiens, UniProt P35222).
T2 construct: 10 nM full-length beta-Catenin (Uniprot ID P35222)
T2 sequence (P35222 1-781): T1 sequence (P35222 1-781)
Briefly: Fluorescence polarization IC50 (beta-catenin / 5FAM-TCF4 10-53 competition). It counts as binding. To be noted: fluorescence polarization; read-out: beta-Catenin FP IC50. (In general: In fluorescence polarisation assays a small probe gives low polarisation when free and higher when bound to something large.)

`CC(=O)N1CCC[C@]12CC=CCCCC1(CCCC=CCCCOC(=O)N3CC[C@@](C(=O)N[C@@H](Cc4ccsc4)C(=O)N[C@@H](Cc4csc5ccccc45)C(=O)N[C@@H](CCC(N)=O)C(N)=O)(C3)NC(=O)[C@H](CCO)NC(=O)[C@H](Cc3ccccc3)NC(=O)[C@H](C)NC(=O)[C@H](C)NC(=O)[C@H](Cc3c[nH]cn3)NC(=O)[C@H](CC(=O)O)NC1=O)NC(=O)[C@H](CC(C)(C)C)NC(=O)[C@H](CC(=O)O)NC2=O` (stereo partly drawn) [I-1794, Ac-PL3-Asp-Npg-B5-Asp-His-Ala-Ala-Phe-Hse-PyrS2-3Thi-BztA-Gln-NH2]: the values for the IC50 in test [1] and in test [2] were 37700 nM and 52 nM, respectively.

On to `CC(=O)N1CCC[C@]12CC=CCCCC1(CCCC=CCCCOC(=O)N3CC[C@@](C(=O)N[C@@H](Cc4ccsc4)C(=O)N[C@@H](Cc4csc5ccccc45)C(=O)N[C@@H](CCC(N)=O)C(N)=O)(C3)NC(=O)[C@H](CC(C)C)NC(=O)[C@H](Cc3ccccc3)NC(=O)[C@H](C)NC(=O)[C@H](C)NC(=O)[C@H](Cc3c[nH]cn3)NC(=O)[C@H](CC(=O)O)NC1=O)NC(=O)[C@H](CC(C)(C)C)NC(=O)[C@H](CC(=O)O)NC2=O` (stereo partly drawn) [I-1796, Ac-PL3-Asp-Npg-B5-Asp-His-Ala-Ala-Phe-Leu-PyrS2-3Thi-BztA-Gln-NH2], for which the results for the 50% inhibitory concentration (IC50) in test [1] and in test [2] were greater than 20000 nM and 22 nM, respectively.

With `CC(=O)N1CCC[C@]12CC=CCCCC1(CCCC=CCCCOC(=O)N3CC[C@@](C(=O)N[C@@H](Cc4ccsc4)C(=O)N[C@@H](Cc4csc5ccccc45)C(=O)N[C@@H](CCC(=O)N4CCC(N5CCCCC5)CC4)C(N)=O)(C3)NC(=O)[C@H](CC(C)C)NC(=O)[C@H](Cc3ccccc3)NC(=O)[C@H](C)NC(=O)[C@H](C)NC(=O)[C@H](CN(CC(=O)O)CC(F)(F)F)NC(=O)[C@H](CC(=O)O)NC1=O)NC(=O)[C@H](CC(C)(C)C)NC(=O)[C@H](CC(=O)O)NC2=O` (stereo partly drawn) [I-1797, Ac-PL3-Asp-Npg-B5-Asp-TfeGA-Ala-Ala-Phe-Leu-PyrS2-3Thi-BztA-[4Pippip]GlnR-NH2], the IC50 (usually the concentration that gives 50% inhibition) in test [1] worked out at 22500 nM; in test [2] it was 10 nM.

Regarding `CC(=O)N1CCC[C@]12CC=CCCCC1(CCCC=CCCCOC(=O)N3CC[C@@](C(=O)N[C@@H](Cc4ccsc4)C(=O)N[C@@H](Cc4csc5ccccc45)C(=O)N[C@@H](CCC(=O)N4CCN(CCCN(C)C)CC4)C(N)=O)(C3)NC(=O)[C@H](CC(C)C)NC(=O)[C@H](Cc3ccccc3)NC(=O)[C@H](C)NC(=O)[C@H](C)NC(=O)[C@H](CN(CC(=O)O)CC(F)(F)F)NC(=O)[C@H](CC(=O)O)NC1=O)NC(=O)[C@H](CC(C)(C)C)NC(=O)[C@H](CC(=O)O)NC2=O` (stereo partly drawn) [I-1799, Ac-PL3-Asp-Npg-B5-Asp-TfeGA-Ala-Ala-Phe-Leu-PyrS2-3Thi-BztA-[Me2NPrPip]GlnR-NH2], the figures for the concentration for half-maximal inhibition (IC50) in test [1] and in test [2] were 25800 nM and 8 nM, respectively.

As for `CC(=O)N1CCC[C@]12CC=CCCCC1(CCCC=CCCCOC(=O)N3CC[C@@](C(=O)N[C@@H](Cc4ccsc4)C(=O)N[C@@H](Cc4csc5ccccc45)C(=O)N[C@@H](CCC(=O)N4CCN(CCCN(C)C)CC4)C(N)=O)(C3)NC(=O)[C@H](CC(C)C)NC(=O)[C@H](Cc3ccccc3)NC(=O)[C@H](C)NC(=O)[C@H](C)NC(=O)[C@H](CN(CC(=O)O)CC(F)(F)F)NC(=O)[C@H](CC(=O)O)NC1=O)NC(=O)[C@H](CC(C)(C)C)NC(=O)[C@H](CC(=O)O)NC2=O` (stereo partly drawn) [I-1800, Ac-PL3-Asp-Npg-B5-Asp-TfeGA-Ala-Ala-Phe-Leu-PyrS2-3Thi-BztA-[Me2NPrPip]GlnR-NH2], the values for the IC50 in test [1] and in test [2] were 25200 nM and 13 nM, respectively.

In the case of `CC(=O)N1CCC[C@]12CC=CCCCC1(CCCC=CCCCOC(=O)N3CC[C@@](C(=O)N[C@@H](Cc4ccsc4)C(=O)N[C@@H](Cc4csc5ccccc45)C(=O)N[C@@H](CCC(=O)N4CCC(N5CCN(C)CC5)CC4)C(N)=O)(C3)NC(=O)[C@H](CC(C)C)NC(=O)[C@H](Cc3ccccc3)NC(=O)[C@H](C)NC(=O)[C@H](C)NC(=O)[C@H](CN(CC(=O)O)CC(F)(F)F)NC(=O)[C@H](CC(=O)O)NC1=O)NC(=O)[C@H](CC(C)(C)C)NC(=O)[C@H](CC(=O)O)NC2=O` (stereo partly drawn) [I-1801, Ac-PL3-Asp-Npg-B5-Asp-TfeGA-Ala-Ala-Phe-Leu-PyrS2-3Thi-BztA-[4MePpzPip]GlnR-NH2], the half-inhibitory concentration (IC50) in test [1] came out at 17500 nM; in test [2], 7 nM.
